Data from ChEMBL document CHEMBL4483862, “Open-source discovery of chemical leads for next-generation chemoprotective antimalarials” (2018).

Test system: Plasmodium berghei
Assay: Luciferase/luciferin-expressing antifolate-resistant parasites were used to infect a culture of HepG2 cells that were pre-incubated with compounds. Infected hepatocytes emit light due to the luciferase reaction. Assay results are presented as the percent inhibition of light emission compared to control. […]
Assay type: functional
Details: sporozoite; for IC90: read-out: LUCIFERASE INFECTION ASSAY - IC90

Row | Structure (SMILES) | IC90 [µM] | also measured
1 | COc1ccc(-n2nc(C)c3c(O)c4c(nc32)CCCC4)cc1 | > 10.7 | IC50 (HEPG2TOX_HILL_SLOPE 2.37, HEPG2TOX_R_SQUARED 0.552, read-out: LUCIFERASE INFECTION ASSAY - IC50): > 10.7 µM
2 | Cc1cc(C(C)(C)C)cc(C)c1COC(=O)c1cccnc1 | > 10 | IC50 (HEPG2TOX_HILL_SLOPE 2.37, HEPG2TOX_R_SQUARED 0.0156, PBLUC_HILL_SLOPE 8.85, PBLUC_R_SQUARED 0.304, read-out: LUCIFERASE INFECTION ASSAY - IC50): 8.03 µM
3 | CN(C(=O)CSc1nnc(COc2ccccc2F)n1N)C1CCCCC1 | 6.57 | IC50 (HEPG2TOX_HILL_SLOPE 2.33, HEPG2TOX_R_SQUARED 0.96, PBLUC_HILL_SLOPE 2.14, PBLUC_R_SQUARED 0.67, read-out: LUCIFERASE INFECTION ASSAY - IC50): 2.35 µM
4 | CCCNc1nccn2c(-c3ccc(C(=O)NC4CC4)cc3)cnc12 | 7.31 | IC50 (HEPG2TOX_HILL_SLOPE 2.37, HEPG2TOX_R_SQUARED 0.851, PBLUC_HILL_SLOPE 7.04, PBLUC_R_SQUARED 0.366, read-out: LUCIFERASE INFECTION ASSAY - IC50): 5.35 µM
5 | CC(=O)Nc1ncc2c(Cl)cccc2n1 | > 14.9 | IC50 (HEPG2TOX_HILL_SLOPE 2.36, HEPG2TOX_R_SQUARED 0.885, PBLUC_HILL_SLOPE 2.93, PBLUC_R_SQUARED 0.162, read-out: LUCIFERASE INFECTION ASSAY - IC50): 7.84 µM
6 | CCCNc1ccc2ncc(-c3ccc(OC)c(OC)c3)n2n1 | 2.73 | IC50 (HEPG2TOX_HILL_SLOPE 2.36, HEPG2TOX_R_SQUARED 0.919, PBLUC_HILL_SLOPE 2.02, PBLUC_R_SQUARED 0.782, read-out: LUCIFERASE INFECTION ASSAY - IC50): 0.918 µM
7 | N#Cc1ccsc1NC(=O)COC(=O)c1c2c(nc3ccccc13)/C(=C/c1cccc([N+](=O)[O-])c1)CCC2 | > 10 | IC50 (HEPG2TOX_HILL_SLOPE 2.36, HEPG2TOX_R_SQUARED 0.622, PBLUC_HILL_SLOPE 3.04, PBLUC_R_SQUARED 0.408, read-out: LUCIFERASE INFECTION ASSAY - IC50): 7.71 µM
8 | CNC(=O)N(C1=NCC(C)(C)S1)c1cccc(C(F)(F)F)c1 | > 9.96 | IC50 (HEPG2TOX_HILL_SLOPE 2.33, HEPG2TOX_R_SQUARED 0.841, PBLUC_HILL_SLOPE 2.51, PBLUC_R_SQUARED 0.0629, read-out: LUCIFERASE INFECTION ASSAY - IC50): 7.95 µM
9 | CN(Cc1ccc(C(N)=O)cc1)c1ncnc2ccccc12 | 1.53 | IC50 (HEPG2TOX_HILL_SLOPE 2.36, HEPG2TOX_R_SQUARED 0.863, PBLUC_HILL_SLOPE 14.7, PBLUC_R_SQUARED 0.585, read-out: LUCIFERASE INFECTION ASSAY - IC50): 1.32 µM
10 | CC(C)(C)OC(=O)N1CCc2nc(NC(=O)c3ccc(Cl)cc3F)sc2C1 | 8.96 | IC50 (HEPG2TOX_HILL_SLOPE 2.37, HEPG2TOX_R_SQUARED 0.812, PBLUC_HILL_SLOPE 3.49, PBLUC_R_SQUARED 0.436, read-out: LUCIFERASE INFECTION ASSAY - IC50): 4.77 µM
11 | COc1cccc(CN(C)c2ncnc3sc(C)c(C)c23)c1OC | 3.84 | IC50 (HEPG2TOX_HILL_SLOPE 2.36, HEPG2TOX_R_SQUARED 0.798, PBLUC_HILL_SLOPE 15.6, PBLUC_R_SQUARED 0.417, read-out: LUCIFERASE INFECTION ASSAY - IC50): 3.34 µM
12 | OCc1ccc(-c2ccc3ncc(-c4cccc(CO)c4)n3n2)cc1 | 2.83 | IC50 (HEPG2TOX_HILL_SLOPE 2.34, HEPG2TOX_R_SQUARED 0.973, PBLUC_HILL_SLOPE 2.94, PBLUC_R_SQUARED 0.59, read-out: LUCIFERASE INFECTION ASSAY - IC50): 1.34 µM
13 | CC(C)(C)c1ccc(NC(=O)c2ccc(CCNS(C)(=O)=O)cc2)cc1 | 3.46 | IC50 (HEPG2TOX_HILL_SLOPE 2.32, HEPG2TOX_R_SQUARED 0.971, PBLUC_HILL_SLOPE 55.7, PBLUC_R_SQUARED 0.572, read-out: LUCIFERASE INFECTION ASSAY - IC50): 3.32 µM
14 | O=C(c1cccc(-c2ccncc2)c1)c1cnc(Nc2cccc(Br)c2)[nH]1 | 2.54 | IC50 (HEPG2TOX_HILL_SLOPE 2.34, HEPG2TOX_R_SQUARED 0.815, PBLUC_HILL_SLOPE 3.59, PBLUC_R_SQUARED 0.729, read-out: LUCIFERASE INFECTION ASSAY - IC50): 1.38 µM
15 | O=C(NCc1cccs1)C1Cc2c(-c3ccccc3)ccnc2O1 (centres undefined) | 6.65 | IC50 (HEPG2TOX_HILL_SLOPE 2.36, HEPG2TOX_R_SQUARED 0.977, PBLUC_HILL_SLOPE 2.08, PBLUC_R_SQUARED 0.632, read-out: LUCIFERASE INFECTION ASSAY - IC50): 2.31 µM
16 | Cc1cc(C)nc(NNC(=S)NC(=O)C23CC4CC(CC(C4)C2)C3)n1 | 3.62 | IC50 (HEPG2TOX_HILL_SLOPE 2.34, HEPG2TOX_R_SQUARED 0.811, PBLUC_HILL_SLOPE 12, PBLUC_R_SQUARED 0.36, read-out: LUCIFERASE INFECTION ASSAY - IC50): 3.01 µM

Row | Structure (SMILES) | IC90 [µM] | also measured
17 | CCc1cc(=O)n2ncc(-c3ccc(Cl)cc3)c2[nH]1 | 3.53 | IC50 (HEPG2TOX_HILL_SLOPE 2.33, HEPG2TOX_R_SQUARED 0.563, PBLUC_HILL_SLOPE 7.25, PBLUC_R_SQUARED 0.422, read-out: LUCIFERASE INFECTION ASSAY - IC50): 2.61 µM
18 | COc1ccc(F)cc1-c1ccnc2n[nH]c(-c3ccc(Cl)cc3)c12 | > 10 | IC50 (HEPG2TOX_HILL_SLOPE 2.34, HEPG2TOX_R_SQUARED 0.976, PBLUC_HILL_SLOPE 1.09, PBLUC_R_SQUARED 0.396, read-out: LUCIFERASE INFECTION ASSAY - IC50): 1.84 µM
19 | CC1CCc2sc(C(=O)N/N=C/c3ccc(Cl)cc3Cl)cc2C1 (centres undefined) | 5.01 | IC50 (HEPG2TOX_HILL_SLOPE 2.35, HEPG2TOX_R_SQUARED 0.954, PBLUC_HILL_SLOPE 8.15, PBLUC_R_SQUARED 0.258, read-out: LUCIFERASE INFECTION ASSAY - IC50): 3.82 µM
20 | CN(C)c1cccc(Nc2nccc3[nH]c(-c4cccc(F)c4)cc23)c1 | 1.41 | IC50 (HEPG2TOX_HILL_SLOPE 2.36, HEPG2TOX_R_SQUARED 0.936, PBLUC_HILL_SLOPE 7.91, PBLUC_R_SQUARED 0.783, read-out: LUCIFERASE INFECTION ASSAY - IC50): 1.07 µM
21 | O=S(=O)(c1ccc(Cl)c(NC(=S)N/N=C/c2ccc(O)cc2O)c1)N1CCOCC1 | 8.73 | IC50 (HEPG2TOX_HILL_SLOPE 2.35, HEPG2TOX_R_SQUARED 0.922, PBLUC_HILL_SLOPE 5.37, PBLUC_R_SQUARED 0.597, read-out: LUCIFERASE INFECTION ASSAY - IC50): 5.8 µM
22 | OCc1ccccc1-c1cn2c(-c3ccc4c(c3)OCO4)cnc2cn1 | > 9.56 | IC50 (HEPG2TOX_HILL_SLOPE 2.34, HEPG2TOX_R_SQUARED 0.695, PBLUC_HILL_SLOPE 2.89, PBLUC_R_SQUARED 0.35, read-out: LUCIFERASE INFECTION ASSAY - IC50): 8.14 µM
23 | OCc1cccc(-c2cnc3ccc(-c4ccc(F)cc4)nn23)c1 | 6.8 | IC50 (HEPG2TOX_HILL_SLOPE 2.34, HEPG2TOX_R_SQUARED 0.934, PBLUC_HILL_SLOPE 3.16, PBLUC_R_SQUARED 0.564, read-out: LUCIFERASE INFECTION ASSAY - IC50): 3.39 µM
24 | N#Cc1ccc(CNC(=S)Nc2ccc(Cl)c(Cl)c2)cc1 | 9.71 | IC50 (HEPG2TOX_HILL_SLOPE 2.37, HEPG2TOX_R_SQUARED 0.471, PBLUC_HILL_SLOPE 2.37, PBLUC_R_SQUARED 0.613, read-out: LUCIFERASE INFECTION ASSAY - IC50): 3.85 µM
25 | COc1cc(OC)cc(-c2cnc3cnc(-c4ccc(Cl)cc4)cn23)c1 | 8.07 | IC50 (HEPG2TOX_HILL_SLOPE 2.36, HEPG2TOX_R_SQUARED 0.458, PBLUC_HILL_SLOPE 2.59, PBLUC_R_SQUARED 0.445, read-out: LUCIFERASE INFECTION ASSAY - IC50): 3.46 µM
26 | CC(C)(C)CC(C)(C)NC(=O)c1cccc(S(=O)(=O)N2CCc3ccccc32)c1 | > 10 | IC50 (HEPG2TOX_HILL_SLOPE 2.33, HEPG2TOX_R_SQUARED 0.906, PBLUC_HILL_SLOPE 19.2, PBLUC_R_SQUARED 0.577, read-out: LUCIFERASE INFECTION ASSAY - IC50): 9.58 µM
27 | COc1cc(C(O)(c2nc3ccccc3s2)C(F)(F)F)c(OC)cc1N (centres undefined) | > 10 | IC50 (HEPG2TOX_HILL_SLOPE 2.34, HEPG2TOX_R_SQUARED 0.875, PBLUC_HILL_SLOPE 2.52, PBLUC_R_SQUARED 0.408, read-out: LUCIFERASE INFECTION ASSAY - IC50): 6.31 µM
28 | Cc1ccc2nc(NC(=O)c3ccccc3C)c(C(=O)NCC(C)C)n2c1 | 9 | IC50 (HEPG2TOX_HILL_SLOPE 2.35, HEPG2TOX_R_SQUARED 0.51, PBLUC_HILL_SLOPE 14.9, PBLUC_R_SQUARED 0.347, read-out: LUCIFERASE INFECTION ASSAY - IC50): 7.76 µM
29 | Cc1cc(N(Cc2ccc(C(C)C)cc2)C2CC2)n2ncnc2n1 | > 10 | IC50 (HEPG2TOX_HILL_SLOPE 2.35, HEPG2TOX_R_SQUARED 0.908, PBLUC_HILL_SLOPE 2.49, PBLUC_R_SQUARED 0.764, read-out: LUCIFERASE INFECTION ASSAY - IC50): 4.95 µM
30 | CC(C)(C)c1ccc(-c2ccc(OCCN3CCOCC3)nc2)cc1 | > 9.69 | IC50 (HEPG2TOX_HILL_SLOPE 2.33, HEPG2TOX_R_SQUARED 0.966, PBLUC_HILL_SLOPE 2.69, PBLUC_R_SQUARED 0.584, read-out: LUCIFERASE INFECTION ASSAY - IC50): 4.35 µM
31 | CC(C)(C)NC(=S)Nc1ccccc1N1CCCCC1 | > 11.3 | IC50 (HEPG2TOX_HILL_SLOPE 2.33, HEPG2TOX_R_SQUARED 0.936, read-out: LUCIFERASE INFECTION ASSAY - IC50): > 11.3 µM
32 | CC1CC1c1ccc(/C=C/C(=O)NNC(=S)NCC2CCCO2)o1 (centres undefined) | 3.79 | IC50 (HEPG2TOX_HILL_SLOPE 2.34, HEPG2TOX_R_SQUARED 0.989, PBLUC_HILL_SLOPE 14.4, PBLUC_R_SQUARED 0.432, read-out: LUCIFERASE INFECTION ASSAY - IC50): 3.25 µM
